Measured values reported in PMC6073580, “DPIE [2-(1,2-diphenyl-1H-indol-3-yl)ethanamine] Augments Pro-Inflammatory Cytokine Production in IL-1β-Stimulated Primary Human Oral Cells” (International Journal of Molecular Sciences, 2018).

Target: T1, IL-1R1 (interleukin-1 receptor, type I) (Homo sapiens, UniProt P14778)
T1 construct: gene IL1R1
T1 sequence (P14778 18-569): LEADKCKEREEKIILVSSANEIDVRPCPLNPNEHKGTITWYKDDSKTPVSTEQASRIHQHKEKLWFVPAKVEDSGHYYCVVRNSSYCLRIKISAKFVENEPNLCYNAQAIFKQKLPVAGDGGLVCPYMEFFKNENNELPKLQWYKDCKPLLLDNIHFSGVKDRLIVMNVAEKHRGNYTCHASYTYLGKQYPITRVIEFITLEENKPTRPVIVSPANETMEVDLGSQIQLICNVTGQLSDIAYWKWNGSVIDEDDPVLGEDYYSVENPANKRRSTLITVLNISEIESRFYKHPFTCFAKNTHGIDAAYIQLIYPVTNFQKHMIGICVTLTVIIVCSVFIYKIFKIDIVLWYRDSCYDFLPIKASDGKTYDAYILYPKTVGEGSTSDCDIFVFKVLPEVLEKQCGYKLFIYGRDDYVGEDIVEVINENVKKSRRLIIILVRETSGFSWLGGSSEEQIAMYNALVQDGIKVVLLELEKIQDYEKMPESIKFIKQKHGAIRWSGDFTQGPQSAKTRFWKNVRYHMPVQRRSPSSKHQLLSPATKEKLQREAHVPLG
Assay: SPR (ProteOn XPR36), IL-1R1 immobilized by amine coupling, […] Langmuir kinetic fit; equilibrium analysis gave […]
Type: binding

Kd: 316 µM
Compound: NCCc1c(-c2ccccc2)n(-c2ccccc2)c2ccccc12 [DPIE, 2-(1,2-diphenyl-1H-indol-3-yl)ethanamine]
